This is an account of results in BindingDB's records for doi:10.1021/jm049408n (University of Camerino, 2005).

The assay deals with Adenosine receptor A3 (Bos taurus). As to the kind of experiment: Displacement of [125I]AB-MECA from adenosine A3 receptors in bovine cortical membranes. A general note: Displacement assays read how much labelled ligand stays bound in the presence of the test substance.

As a reminder, the Ki is the equilibrium dissociation constant of an inhibitor or competing ligand from its target. A higher Ki goes with weaker binding. Compound `CNC(=O)[C@H]1O[C@@H](n2cnc3c(NCc4cccc(I)c4)ncnc32)[C@](C)(O)[C@@H]1O` [3,4-Dihydroxy-5-[6-(3-iodo-benzylamino)-purin-9-yl]-4-methyl-tetrahydro-furan-2-carboxylic acid methylamide] returned a Ki of 240 nM.
